Tests used:
[1] = In vivo study in ferrets (clinical signs after oral gavage); conditions: male ferrets, oral administration, standard dose as printed
Method: One group of three male non-naïve ferrets (domestic strain, >16 weeks, >1.2 Kg) were starved for approximately 1.5 h prior to administration of a dosing formulation. Food was given 2 hours post dose. […] The dosing volume was adjusted to 5 mL/kg. Clinical signs were recorded throughout the study period. […] Plasma samples were stored frozen at −80° C. pending transfer to analysis. An aliquot of dosing solution (0.5 mL) was taken prior to dosing and stored frozen at −20° C. pending transfer to analysis. Animals used for multiple studies after a wash out of a minimum twelve day period.

[2] = Water stability (conversion of prodrug to 1,3PDS); type: physicochemical; conditions: deionized water; for Conversion to 1,3PDS (%) 1 h / Conversion to 1,3PDS (%) 2 h: 37° C.; for Conversion to 1,3PDS (%) 0 h / Conversion to 1,3PDS (%) 24 h: room temperature; for Conversion to 1,3PDS (%) 0 h: 200 μg/mL
Method: The objective of this test was to determine the stability of the prodrugs in simulated gastric fluid (SGF) and water at 37° C. up to 2 hours and in water at room temperature up to 24 hours.
Simulated gastric fluid and water samples were incubated in a shaking water bath at 37° C. for up to 2 hours. The compound (prodrug) was added at Time-point 0. At each selected time point (refer to table), sample aliquots were withdrawn and analyzed to determine the concentration of 1,3-propanedisulfonic acid (1,3PDS). The concentrations of 1,3PDS were calculated based on their respective peak area. The % appearance of 1,3PDS was determined by the amounts of compound determined at each time point compared to nominal concentration (100%) of 1,3PDS generated by 100% of the prodrug (equivalent concentration).
A fresh stock solution at approximately 2 mg/mL of the compound was prepared. One stability solution at 200 μg/mL in the SGF was prepared (sample referred to as Tube A). A stability solution at 200 μg/mL in deionized water was prepared (sample referred to as Tube B). Immediately after preparation, each 200 μg/mL solution was diluted in triplicates to 20 μg/mL in deionized water and analyzed using LC-MS/MS method (Time-point 0). Thereafter, the incubation of tubes A and B was continued in the shaking water bath at 37° C. for 1 and 2 hours while one aliquot of tube B was kept at room temperature for 24 hours. At each specific time point of incubation, 3 aliquots (triplicate) of 50 μL were removed, diluted in 450 μL of water and analyzed using LC-MS/MS method. In parallel, 3 reference samples of 1,3PDS at 100, 10 and 1 μg/mL were prepared, diluted in triplicate in water and injected at the beginning and at the end of the batch. These samples were considered as reference samples.
The concentrations of 1,3PDS were calculated based on response of the reference samples and their respective peak area response. The % appearance of 1,3PDS was determined by the amounts of compound determined at each time point compared to expected nominal concentration (100%) of 1,3PDS generated by 100% of the prodrug (equivalent concentration).

[3] = test system: Salmonella typhimurium strains (TA1535, TA1537, TA98, TA100) and Escherichia coli strain WP2 uvrA; test: Bacterial mutation tests (Ames test); type: cell-based; conditions: 1.58 to 5000 μg/plate, pre-incubation version; for Bacterial mutation test result in presence of S9: with S9 mix; for Bacterial mutation test result in absence of S9: without S9 mix
Method: Bacterial mutation tests were performed at Charles River Laboratories to evaluate the mutagenic potential of various prodrugs. Salmonella typhimurium strains (TA1535, TA1537, TA98, TA100) and Escherichia coli strain WP2 uvrA were treated with prodrugs at concentrations ranging from 1.58 to 5000 μg/plate in the presence and absence of a supplemented liver fraction (S9 mix) using the pre-incubation version of the bacterial mutation test. All concentrations of each compound were evaluated in triplicate. Bacteria were incubated with standard positive control agents, and the response of the various bacterial strains to these agents confirmed the sensitivity of the test system and the activity of the S9 mix.

SMILES | Clinical signs / side effects in ferrets [1] | Conversion to 1,3PDS (%) 1 h [2] [%] | Conversion to 1,3PDS (%) 2 h [2] [%] | Conversion to 1,3PDS (%) 0 h [2] [%] | Conversion to 1,3PDS (%) 24 h [2] [%] | Bacterial mutation test result in presence of S9 [3] | Bacterial mutation test result in absence of S9 [3]
CCOC(=O)C(OS(=O)(=O)CCCS(=O)(=O)OC(C(=O)OCC)C(C)(C)C)C(C)(C)C (centres unmarked) [Compound B82] | no clinical signs | – | – | – | – | – | –
CC(C)(C)C(=O)OCOS(=O)(=O)CCCS(=O)(=O)OCOC(=O)C(C)(C)C [Compound D1] | green face | – | – | – | – | – | –
CC(C)(C)COS(=O)(=O)CCCS(=O)(=O)[O-].[Na+] [A6(Na)] | – | 1.0 | 1.6 | 0.4 | 1.4 | – | –
CCOC(=O)C(OS(=O)(=O)CCCS(=O)(=O)OC(C(=O)OCC)C(C)C)C(C)C (centres unmarked) [Compound B83] | no clinical signs | – | – | – | – | Negative | Negative
O=C(OCOS(=O)(=O)CCCS(=O)(=O)OCOC(=O)C1CCCCC1)C1CCCCC1 [Compound D5] | abdominal contracting and/or vomiting | – | – | – | – | – | –
CC1(C)COC(=O)C1OS(=O)(=O)CCCS(=O)(=O)OC1C(=O)OCC1(C)C (centres unmarked) [Compound B77] | no clinical signs | – | – | – | – | Negative | Negative
CC(C)[C@H](N)C(=O)NCCC(C)(C)COS(=O)(=O)CCCS(=O)(=O)OCC(C)(C)CCNC(=O)[C@@H](N)C(C)C [Compound B14] | – | 0.0 | 0.0 | 0.0 | – | – | –
CCC(=O)OCOS(=O)(=O)CCCS(=O)(=O)OCOC(=O)CC [Compound D7] | abdominal contracting and/or vomiting | – | – | – | – | – | –
CCOC(=O)CCC(C)(C)COS(=O)(=O)CCCS(=O)(=O)OCC(C)(C)CCC(=O)OCC [Compound B75] | 2 out of 3 animals showed abdomen scratching but recovered after 1 h | – | – | – | – | Negative | Negative
CC(C)[C@H](N)C(=O)NCCC(C)(C)COS(=O)(=O)CCCS(=O)(=O)O [Compound A14] | – | 0.4 | 1.4 | 0.2 | – | – | –
CCOC(=O)C(C)(N)COS(=O)(=O)CCCS(=O)(=O)O (centres unmarked) [Compound A61] | no clinical signs | – | – | – | – | Positive | Positive
CC1(COS(=O)(=O)CCCS(=O)(=O)OCC2(C)CCC(=O)O2)CCC(=O)O1 (centres unmarked) [Compound B78] | – | – | – | – | – | Negative | Negative
CC(C)(CNC(=O)[C@@H](N)Cc1ccccc1)COS(=O)(=O)CCCS(=O)(=O)O [Compound A51] | no clinical signs | 14 | 18 | 13 | – | Negative | Negative
CC(C)(COS(=O)(=O)CCCS(=O)(=O)OCC(C)(C)C(=O)O)C(=O)O [Compound B58] | vomiting | – | – | – | – | Positive | Positive
CCOC(=O)C(C)(C)COS(=O)(=O)CCCS(=O)(=O)OCC(C)(C)C(=O)OCC [Compound B29] | no clinical signs | – | – | – | – | Positive | Negative
CCOC(=O)C(C)(C)C(C)OS(=O)(=O)CCCS(=O)(=O)OC(C)C(C)(C)C(=O)OCC (centres unmarked) [Compound B68] | – | – | – | – | – | Negative | Negative
O=S1(=O)CCCS(=O)(=O)OCO1 [Compound C2] | severe toxicity | – | – | – | – | – | –
CC1(COS(=O)(=O)CCCS(=O)(=O)OCC2(C)CCOC2=O)CCOC1=O (centres unmarked) [Compound B76] | no clinical signs | – | – | – | – | Negative | Negative
CC(C)(CNC(=O)[C@H](Cc1ccccc1)NC(=O)OC(C)(C)C)COS(=O)(=O)CCCS(=O)(=O)[O-].[Na+] [A52(K)] | – | 14.6 | 18.8 | 7.0 | 21.3 | – | –
CC(C)(CCOC(=O)c1ccccc1)COS(=O)(=O)CCCS(=O)(=O)OCC(C)(C)CCOC(=O)c1ccccc1 [Compound B23] | – | 0.0 | 0.0 | 0.0 | 0.0 | – | –
CC(OC(=O)NCCC(C)(C)COS(=O)(=O)CCCS(=O)(=O)OCC(C)(C)CCNC(=O)OC(C)OC(=O)C(C)C)OC(=O)C(C)C (centres unmarked) [Compound B13] | – | 0.4 | 0.4 | 0.3 | – | – | –
CCCC(=O)OCOS(=O)(=O)CCCS(=O)(=O)OCOC(=O)CCC [Compound D3] | abdominal contracting and/or vomiting | – | – | – | – | – | –
CC(OC(=O)NCCC(C)(C)COS(=O)(=O)CCCS(=O)(=O)O)OC(=O)C(C)C (centres unmarked) [Compound A13] | – | 0.0 | 0.0 | 0.0 | 0.0 | – | –
